From patent publication US6420330B1, “Use of quaternary carboxylic acid alkanolamine ester salts as microbicide agents” (Cognis Deutschland GmbH, priority 1997, dated 2002)

What follows are compounds tested on Candida albicans ATCC 10231 (assay: DGHM suspension test, microbicidal activity). Conditions: CU 50 mg/l; contact time 5 mins.
Assay type: cell-based
Method: (§1) The microbicidal activity of the quanterary carboxylic acid alkanolamine ester salts used in accordance with the invention was tested against the following selected test germs:
(§2) The effectiveness of the compound to be tested was determined by the suspension test in accordance with the guidelines of the Deutsche Gesellschaft for Hygiene and Mikrobiologie (DGHM). Test solutions containing quatemary carboxylic acid alkanolamine ester salts in the quantities shown in the Tables of 50, 100, 200, 400 and 800 mg/l were prepared using water with a hardness of 17° dH and optionally isopropanol.
(§3) At room temperatures, quantities of 0.1 ml test germ suspension were pipetted into test tubes containing 10 ml of the test solutions described above and mixed. After various contact times of 5, 15, 30 and 60 minutes, 1 ml of material was taken from the test tubes by pipette and transferred to 9 ml inactivator solution (inactivators: 3.0% Tween, 0.3% lecithin, 0.1% histidine). After in activation for at least 5 and at most 30 minutes, the living germ count was determined by plating out onto casein peptone-soybean flour peptone (CaSo)-agar plates. Using a spiral plater, the inactivating mixture was directly plated out onto CaSo-agar. The samples were incubated for 24 to 72 hours at 37° C. and macroscopically evaluated for growth. The destruction time or the residual germ count was determined in this way. The germ count of an unchallenged water control is related to the germ count of the inactivated test solution taking the dilution into account. The higher the value, the better the microbicidal effect. The symbol < means that the logarithmic reductuon factor is below the indicated value or, in the case of the symbol >, above the indicated value. The abbreviation CU stands for “concentration used”.

Row | Compound | logarithmic reduction factor
1 | CCCCCCCC(=O)OCC[N+](C)(C)CCOC(=O)CCCCCCC.COS(=O)(=O)[O-] [Example 1, dimethyl diethanolammonium dicaprylic acid ester methosulfate] | <0.50

Same assay, conditions: CU 50 mg/l; contact time 15 mins.

Row | Compound | logarithmic reduction factor
2 | CCCCCCCC(=O)OCC[N+](C)(C)CCOC(=O)CCCCCCC.COS(=O)(=O)[O-] [Example 1, dimethyl diethanolammonium dicaprylic acid ester methosulfate] | <0.37

Same assay, conditions: CU 50 mg/l; contact time 30 mins.

Row | Compound | logarithmic reduction factor
3 | CCCCCCCC(=O)OCC[N+](C)(C)CCOC(=O)CCCCCCC.COS(=O)(=O)[O-] [Example 1, dimethyl diethanolammonium dicaprylic acid ester methosulfate] | <0.35

Same assay, conditions: CU 50 mg/l; contact time 60 mins.

Row | Compound | logarithmic reduction factor
4 | CCCCCCCC(=O)OCC[N+](C)(C)CCOC(=O)CCCCCCC.COS(=O)(=O)[O-] [Example 1, dimethyl diethanolammonium dicaprylic acid ester methosulfate] | <0.36

Same assay, conditions: CU 100 mg/l; contact time 5 mins.

Row | Compound | logarithmic reduction factor
5 | CCCCCCCC(=O)OCC[N+](C)(C)CCOC(=O)CCCCCCC.COS(=O)(=O)[O-] [Example 1, dimethyl diethanolammonium dicaprylic acid ester methosulfate] | <0.50

Same assay, conditions: CU 100 mg/l; contact time 15 mins.

Row | Compound | logarithmic reduction factor
6 | CCCCCCCC(=O)OCC[N+](C)(C)CCOC(=O)CCCCCCC.COS(=O)(=O)[O-] [Example 1, dimethyl diethanolammonium dicaprylic acid ester methosulfate] | 0.41

Same assay, conditions: CU 100 mg/l; contact time 30 mins.

Row | Compound | logarithmic reduction factor
7 | CCCCCCCC(=O)OCC[N+](C)(C)CCOC(=O)CCCCCCC.COS(=O)(=O)[O-] [Example 1, dimethyl diethanolammonium dicaprylic acid ester methosulfate] | 0.60

Same assay, conditions: CU 100 mg/l; contact time 60 mins.

Row | Compound | logarithmic reduction factor
8 | CCCCCCCC(=O)OCC[N+](C)(C)CCOC(=O)CCCCCCC.COS(=O)(=O)[O-] [Example 1, dimethyl diethanolammonium dicaprylic acid ester methosulfate] | 0.70

Same assay, conditions: CU 200 mg/l; contact time 5 mins.

Row | Compound | logarithmic reduction factor
9 | CCCCCCCC(=O)OCC[N+](C)(C)CCOC(=O)CCCCCCC.COS(=O)(=O)[O-] [Example 1, dimethyl diethanolammonium dicaprylic acid ester methosulfate] | 1.53

Same assay, conditions: CU 200 mg/l; contact time 15 mins.

Row | Compound | logarithmic reduction factor
10 | CCCCCCCC(=O)OCC[N+](C)(C)CCOC(=O)CCCCCCC.COS(=O)(=O)[O-] [Example 1, dimethyl diethanolammonium dicaprylic acid ester methosulfate] | 2.53

Same assay, conditions: CU 200 mg/l; contact time 30 mins.

Row | Compound | logarithmic reduction factor
11 | CCCCCCCC(=O)OCC[N+](C)(C)CCOC(=O)CCCCCCC.COS(=O)(=O)[O-] [Example 1, dimethyl diethanolammonium dicaprylic acid ester methosulfate] | 2.91

Same assay, conditions: CU 200 mg/l; contact time 60 mins.

Row | Compound | logarithmic reduction factor
12 | CCCCCCCC(=O)OCC[N+](C)(C)CCOC(=O)CCCCCCC.COS(=O)(=O)[O-] [Example 1, dimethyl diethanolammonium dicaprylic acid ester methosulfate] | 3.61

Same assay, conditions: CU 400 mg/l; contact time 5 mins.

Row | Compound | logarithmic reduction factor
13 | CCCCCCCC(=O)OCC[N+](C)(C)CCOC(=O)CCCCCCC.COS(=O)(=O)[O-] [Example 1, dimethyl diethanolammonium dicaprylic acid ester methosulfate] | >4.5

Same assay, conditions: CU 400 mg/l; contact time 15 mins.

Row | Compound | logarithmic reduction factor
14 | CCCCCCCC(=O)OCC[N+](C)(C)CCOC(=O)CCCCCCC.COS(=O)(=O)[O-] [Example 1, dimethyl diethanolammonium dicaprylic acid ester methosulfate] | >4.37

Same assay, conditions: CU 400 mg/l; contact time 30 mins.

Row | Compound | logarithmic reduction factor
15 | CCCCCCCC(=O)OCC[N+](C)(C)CCOC(=O)CCCCCCC.COS(=O)(=O)[O-] [Example 1, dimethyl diethanolammonium dicaprylic acid ester methosulfate] | >4.35

Same assay, conditions: CU 400 mg/l; contact time 60 mins.

Row | Compound | logarithmic reduction factor
16 | CCCCCCCC(=O)OCC[N+](C)(C)CCOC(=O)CCCCCCC.COS(=O)(=O)[O-] [Example 1, dimethyl diethanolammonium dicaprylic acid ester methosulfate] | >4.36

Same assay, conditions: CU 800 mg/l; contact time 5 mins.

Row | Compound | logarithmic reduction factor
17 | CCCCCCCC(=O)OCC[N+](C)(C)CCOC(=O)CCCCCCC.COS(=O)(=O)[O-] [Example 1, dimethyl diethanolammonium dicaprylic acid ester methosulfate] | >4.50

Same assay, conditions: CU 800 mg/l; contact time 15 mins.

Row | Compound | logarithmic reduction factor
18 | CCCCCCCC(=O)OCC[N+](C)(C)CCOC(=O)CCCCCCC.COS(=O)(=O)[O-] [Example 1, dimethyl diethanolammonium dicaprylic acid ester methosulfate] | >4.37

Same assay, conditions: CU 800 mg/l; contact time 30 mins.

Row | Compound | logarithmic reduction factor
19 | CCCCCCCC(=O)OCC[N+](C)(C)CCOC(=O)CCCCCCC.COS(=O)(=O)[O-] [Example 1, dimethyl diethanolammonium dicaprylic acid ester methosulfate] | >4.35

Same assay, conditions: CU 800 mg/l; contact time 60 mins.

Row | Compound | logarithmic reduction factor
20 | CCCCCCCC(=O)OCC[N+](C)(C)CCOC(=O)CCCCCCC.COS(=O)(=O)[O-] [Example 1, dimethyl diethanolammonium dicaprylic acid ester methosulfate] | >4.36

The compounds below were run on Pseudomonas aeruginosa ATCC 15442 (assay: DGHM suspension test, microbicidal activity). Conditions: CU 50 mg/l; contact time 5 mins.
Assay type: cell-based
Method: as §1, §2, §3

Row | Compound | logarithmic reduction factor
21 | CCCCCCCC(=O)OCC[N+](C)(C)CCOC(=O)CCCCCCC.COS(=O)(=O)[O-] [Example 1, dimethyl diethanolammonium dicaprylic acid ester methosulfate] | <1.83

Same assay, conditions: CU 50 mg/l; contact time 15 mins.

Row | Compound | logarithmic reduction factor
22 | CCCCCCCC(=O)OCC[N+](C)(C)CCOC(=O)CCCCCCC.COS(=O)(=O)[O-] [Example 1, dimethyl diethanolammonium dicaprylic acid ester methosulfate] | <1.47

Same assay, conditions: CU 50 mg/l; contact time 30 mins.

Row | Compound | logarithmic reduction factor
23 | CCCCCCCC(=O)OCC[N+](C)(C)CCOC(=O)CCCCCCC.COS(=O)(=O)[O-] [Example 1, dimethyl diethanolammonium dicaprylic acid ester methosulfate] | <1.55

Same assay, conditions: CU 50 mg/l; contact time 60 mins.

Row | Compound | logarithmic reduction factor
24 | CCCCCCCC(=O)OCC[N+](C)(C)CCOC(=O)CCCCCCC.COS(=O)(=O)[O-] [Example 1, dimethyl diethanolammonium dicaprylic acid ester methosulfate] | <1.56

Same assay, conditions: CU 100 mg/l; contact time 5 mins.

Row | Compound | logarithmic reduction factor
25 | CCCCCCCC(=O)OCC[N+](C)(C)CCOC(=O)CCCCCCC.COS(=O)(=O)[O-] [Example 1, dimethyl diethanolammonium dicaprylic acid ester methosulfate] | <1.83

Same assay, conditions: CU 100 mg/l; contact time 15 mins.

Row | Compound | logarithmic reduction factor
26 | CCCCCCCC(=O)OCC[N+](C)(C)CCOC(=O)CCCCCCC.COS(=O)(=O)[O-] [Example 1, dimethyl diethanolammonium dicaprylic acid ester methosulfate] | <1.47

Same assay, conditions: CU 100 mg/l; contact time 30 mins.

Row | Compound | logarithmic reduction factor
27 | CCCCCCCC(=O)OCC[N+](C)(C)CCOC(=O)CCCCCCC.COS(=O)(=O)[O-] [Example 1, dimethyl diethanolammonium dicaprylic acid ester methosulfate] | <1.55

Same assay, conditions: CU 100 mg/l; contact time 60 mins.

Row | Compound | logarithmic reduction factor
28 | CCCCCCCC(=O)OCC[N+](C)(C)CCOC(=O)CCCCCCC.COS(=O)(=O)[O-] [Example 1, dimethyl diethanolammonium dicaprylic acid ester methosulfate] | <1.56

Same assay, conditions: CU 200 mg/l; contact time 5 mins.

Row | Compound | logarithmic reduction factor
29 | CCCCCCCC(=O)OCC[N+](C)(C)CCOC(=O)CCCCCCC.COS(=O)(=O)[O-] [Example 1, dimethyl diethanolammonium dicaprylic acid ester methosulfate] | <1.83

Same assay, conditions: CU 200 mg/l; contact time 15 mins.

Row | Compound | logarithmic reduction factor
30 | CCCCCCCC(=O)OCC[N+](C)(C)CCOC(=O)CCCCCCC.COS(=O)(=O)[O-] [Example 1, dimethyl diethanolammonium dicaprylic acid ester methosulfate] | <1.47
